Reference: publication PMC5609566, “Elucidation of antimicrobial activity and mechanism of action by N-substituted carbazole derivatives” (Bioorganic & Medicinal Chemistry Letters, 2017)

Key:
[1] = biological target: T1, S. cerevisiae H^+-ATPase (Saccharomyces cerevisiae, UniProt P05030); test: NADH-coupled ATPase assay, initial rate of ATP hydrolysis; assay type: biochemical; conditions: pH 7, n = 3
T1 construct: transformed with the full-length cDNA of the S. cerevisiae plasma membrane H^+-ATPase isoform PMA1; made in house; host or cells: S. cerevisiae RS72
Method: To investigate whether the ATPase inhibition observed was due to compound binding at the ATP binding site, three compounds (5, 7, and 10) were selected for further evaluation in an ATPase activity assay on S. cerevisiae H^+-ATPase-containing membranes in presence of increasing ATP concentrations. The initial rate of ATP turnover was measured spectrophotometrically by an NADH-coupled ATPase activity assay that uses phosphoenolpyruvate to regenerate ATP, as described in Møller et al., 1980.[18]
Fig. 5 Kinetics of H^+-ATPase inhibition by carbazole compounds. The initial rate of ATP hydrolysis catalyzed by S. cerevisiae H^+-ATPase was determined by an NADH-coupled ATPase assay, as described in the Supporting Information. The reaction was initiated by the addition of H^+-ATPase-containing membranes (arrows with “H^+-ATPase”) to a pH 7 buffer containing 5 mM ATP. At the indicated times the respective compounds were added to give the final compound concentrations shown in the figure and a final DMSO concentration of 1.1%.
Fig. 6 Compound dependence of the initial rate of H^+-ATPase activity at 1 mM (triangles) or 10 mM (circles) ATP. The initial rates following compound addition deduced from experiments similar to those shown in Fig. 5 were normalized to the maximal rate obtained at 10 mM ATP in the absence of compound (presence of 1.1% DMSO) and plotted as a function of the compound concentration.
The initial rate of ATP turnover at RT was measured spectrophotometrically at 340 nm by an NADH-coupled ATPase assay that uses phosphoenolpyruvate to regenerate ATP, as described in Møller et al., 1980^4. The reaction buffer contained 17.5 mM MOPS-NaOH pH 7, 44 mM KNO3, 22 mM NaN3, 0.22 mM Na2MoO4, 1 mM phosphoenolpyruvate, 0.27 mM NADH, 83 µg/ml pyruvate kinase, 22 µg/ml L-lactate dehydrogenase, either 1, 5 or 10 mM ATP, and MgSO4 to give a Mg^2+ concentration of 2 mM in excess over the ATP concentration. The ATPase reaction was initiated by the addition of 0.2-0.3 mg/ml of S. cerevisiae Pma1-containing membranes followed by addition of compound (resulting in a final DMSO concentration of 1.1%).

[2] = test system: C. albicans; test: Extracellular acidification assay; assay type: cell-based; conditions: Candida albicans, mean ± SEM n = 3
Text: (§1) It was subsequently evaluated whether or not the carbazoles were able to prevent extracellular acidification of the surrounding media by blocking the pumping activity of the H^+-ATPase within fungal cells.[15] […] The H^+-ATPase requires ATP to transport protons out of fungal cells. Consequently, a decrease in intracellular ATP (iATP) levels will indirectly affect H^+-ATPase activity. […] In all cases, iATP levels were […] in C. albicans cells exposed to carbazoles compared to the untreated control. […] This implies that the carbazoles need to pass the fungal membrane to inhibit the H^+-ATPase and 7, 18 and 19 may have reduced membrane permeability.
(§2) The ability of S. cerevisiae and C. albicans to acidify the media upon glucose addition was evaluated using the pH sensor dextran (40,000MW)-fluorescein-isothiocyanate as described in Kjellerup et al., 2017^6. Briefly, the cells was starved overnight in 50 mM KCl, pH 6.7 at 4 °C. The cell suspension (Final OD600 of 0.19) was mixed with 1.3 µg/ml dextran (40,000MW)-fluorescein-isothiocyanate, 1.5 % DMSO containing inhibitors and the assay initiated with the addition of 2 % D-(+)-glucose. The rate of media acidification was calculated based on the slope of the fluorescent drop in the first 12 minutes after glucose addition.

[3] = test system: S. cerevisiae; test: Extracellular acidification assay; assay type: cell-based; conditions: Saccharomyces cerevisiae, mean ± SEM n = 3
Text: as §1, §2

[4] = test system: C. albicans cells; test: Intracellular ATP determination; assay type: cell-based; conditions: compound at 20 µM, 30 minutes, mean ± SEM n = 5
Text: as §1
C. albicans cells were transferred to 3 ml of YPD media and grown overnight at 30 °C and 150 rpm. The cells were pelleted at 2000 × g for 2 min. and washed in PBS (Sigma-Aldrich, catalog number 8537) twice before re-suspension to an OD600 of 0.1. Cell suspension (98 µL) and 2 µl compound in DMSO were incubated for 30 minutes at RT. Forty microliters of this suspension was then transferred to a black 96-well plate containing 40 µl BacTiterGlo reagent (Promega, Madison, WI) and the plate was incubated for 15 minutes in the dark at room temperature. Luminescence was read on a SpectraMax X5 (Molecular Devices, Sunnyvale, CA) plate reader with 10 s shake and 0.5 s integration time. A standard curve containing 10, 100 and 1000 nM ATP was prepared for every experiment.

[5] = test system: Pseudomonas aeruginosa; parameters: method as in PMID 25453797, PMID 27167126; conditions: cited from earlier work
[6] = test system: C. albicans (SC5314); test: Time-kill assay; assay type: cell-based
Method: (§3) Time-kill studies were carried out to investigate whether the antifungal activity observed for 10 was fungistatic or fungicidal. Given the essential nature of fungal H^+-ATPase, it is anticipated that compounds targeting H^+-ATPase activity will promote fungicidal effects.[21]
(§4) Fig. 7 Time-kill data for C. albicans and C. glabrata cells (1 × 10^5 CFU/ml) incubated with DMSO (final concentration 1%), 1 µM AMB, and 5 or 10 µM of compound 10.
(§5) C. albicans (SC5314) and C. glabrata (ATCC 90030) cells (1 x 10^5 CFU/ml) were incubated in 10 mL RPMI media at 30 °C with gentle agitation (150 rpm) in the presence of amphotericin B (1 µM) or compound 10 at a concentration of 5 or 10 µM. At the indicated time points (0, 1, 3, 5 and 24 h at 30 °C incubation, 150 rpm), 100-μL aliquots were removed, serially diluted (10-fold) in saline (0.9% NaCl), and plated on YPD agar plates. The resulting CFUs were enumerated after incubation at 30 °C for 48 h. Cells treated with DMSO (1%, v/v) served as a control.

[7] = test system: C. glabrata (ATCC 90030); test: Time-kill assay; assay type: cell-based
Method: as §3, §4, §5

T1 sequence (P05030 whole entry, canonical isoform): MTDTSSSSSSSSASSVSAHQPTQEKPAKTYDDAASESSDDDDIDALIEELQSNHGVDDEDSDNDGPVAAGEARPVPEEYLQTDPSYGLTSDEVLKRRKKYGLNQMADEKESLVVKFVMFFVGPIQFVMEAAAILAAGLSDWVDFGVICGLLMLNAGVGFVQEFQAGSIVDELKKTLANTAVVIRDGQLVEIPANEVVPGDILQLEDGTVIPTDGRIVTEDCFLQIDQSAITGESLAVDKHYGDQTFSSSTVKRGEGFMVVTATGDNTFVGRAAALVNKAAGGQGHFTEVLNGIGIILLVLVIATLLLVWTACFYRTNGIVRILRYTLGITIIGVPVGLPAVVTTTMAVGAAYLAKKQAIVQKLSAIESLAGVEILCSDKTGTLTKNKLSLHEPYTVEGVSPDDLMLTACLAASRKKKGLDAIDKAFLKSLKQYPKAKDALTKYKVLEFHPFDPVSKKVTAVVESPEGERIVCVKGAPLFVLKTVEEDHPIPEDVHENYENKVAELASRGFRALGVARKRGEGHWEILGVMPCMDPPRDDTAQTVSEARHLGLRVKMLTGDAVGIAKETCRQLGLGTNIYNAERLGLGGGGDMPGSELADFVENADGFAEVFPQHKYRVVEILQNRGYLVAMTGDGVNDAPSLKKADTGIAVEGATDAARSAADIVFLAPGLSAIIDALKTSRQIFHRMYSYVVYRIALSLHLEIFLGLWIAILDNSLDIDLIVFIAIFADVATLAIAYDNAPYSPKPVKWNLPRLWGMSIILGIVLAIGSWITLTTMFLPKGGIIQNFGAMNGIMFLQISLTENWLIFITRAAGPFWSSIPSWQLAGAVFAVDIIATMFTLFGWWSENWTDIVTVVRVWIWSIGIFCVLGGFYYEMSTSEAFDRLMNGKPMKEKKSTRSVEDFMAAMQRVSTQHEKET

Structure (SMILES): OC(Cn1ccnc1)Cn1c2ccc(Cl)cc2c2cc(Cl)ccc21 (centres unmarked) [Compound 5, 1-(3,6-dichloro-9H-carbazol-9-yl)-3-(1H-imidazol-1-yl)propan-2-ol]
- IC50 ([1]; 1 mM ATP): 78 ± 14.9 µM
- IC50 ([1]; 10 mM ATP): 60 ± 14.2 µM

Structure (SMILES): OC(CN1CCOCC1)Cn1c2ccc(Cl)cc2c2cc(Cl)ccc21 (centres unmarked) [Compound 7, 1-(3,6-dichloro-9H-carbazol-9-yl)-3-morpholinopropan-2-ol]
- IC50 [2]: 22.2 ± 12.9 µM
- IC50 [3]: 33.3 ± 0.6 µM
- IC50 ([1]; 1 mM ATP): 29.7 ± 6.7 µM
- IC50 ([1]; 10 mM ATP): 16.8 ± 1.7 µM
- iATP [4]: 93 ± 45 nM

Structure (SMILES): CN1CCN(CC(O)Cn2c3ccc(Cl)cc3c3cc(Cl)ccc32)CC1 (centres unmarked) [Compound 8, 1-(3,6-dichloro-9H-carbazol-9-yl)-3-(4-methylpiperazin-1-yl)propan-2-ol]
- IC50 [2]: 9.7 ± 6.8 µM
- IC50 [3]: 11.1 ± 2.1 µM
- iATP [4]: 70 ± 25 nM

Structure (SMILES): CCC(C)NCC(O)Cn1c2ccc(Cl)cc2c2cc(Cl)ccc21 (centres unmarked) [Compound 10, 1-(sec-butylamino)-3-(3,6-dichloro-9H-carbazol-9-yl)propan-2-ol]
- IC50 [2]: 2.4 ± 1.2 µM
- IC50 [3]: 2.1 ± 1 µM
- IC50 ([1]; 1 mM ATP): 4.5 ± 0.5 µM
- IC50 ([1]; 10 mM ATP): 6.3 ± 1.2 µM
- iATP [4]: 491 ± 79 nM
- activity in bacteria reported previously [5]: membrane damaging activity
- exposure time after which fungicidal activity was evident ([6]; 10 µM): 1 h
- time-kill outcome (fungistatic or fungicidal) ([6]; 5 or 10 µM, versus 1 µM AMB): cell death comparable to that observed for amphotericin B
- exposure time after which fungicidal activity was evident ([7]; C. glabrata): 3 h
- time-kill outcome (fungistatic or fungicidal) ([7]; wild-type C. glabrata, 5 or 10 µM, versus 1 µM AMB): cell death comparable to that observed for amphotericin B

Structure (SMILES): CN(C)CCCCn1c2ccc(Cl)cc2c2cc(Cl)ccc21 [Compound 15]
- IC50 [2]: 13.1 ± 7.2 µM
- IC50 [3]: 16.2 ± 2.6 µM
- iATP [4]: 53 ± 10 nM

Structure (SMILES): CN1CCN(CCCn2c3ccc(Cl)cc3c3cc(Cl)ccc32)CC1 [Compound 16, 3,6-dichloro-9-(3-(4-methylpiperazin-1-yl)propyl)-9H-carbazole]
- IC50 [2]: 9.5 ± 2.5 µM
- IC50 [3]: 7.3 ± 0.4 µM
- iATP [4]: 235 ± 70 nM
